Entries after “also recorded” stand apart in the source; their conditions may differ.

Experiment [1] concerns the target T1, mu receptor (Cavia porcellus, UniProt A0ACM8Q262).
T1 construct: antagonism of morphine
In words: Antagonism of morphine sulfate (mu agonist) on the GPI, IC50 ratio. The format is cell-based, guinea pig. How it is done: (§1) Ilea from guinea pigs were taken approximately 10 cm from the ileocaecal junction, and a strip of longitudinal muscle with the myenteric plexus attached was prepared by method of Rang et al., Brit. J. Phamacol., 22, 356 (1964), the disclosure of which is incorporated by reference herein. A 1 cm portion of this strip was then mounted between two platinum electrodes placed in a 10 ml organ bath and connected to an isometric transducer; contractions were recorded on a polygraph. Contractions of the ileal strip were initiated by supramaximal rectangular pulses in all preparations (80 V of 0.5 ms duration at a frequency of 0.1 Hz). Krebs bicarbonate solution containing 1.25 uM chlorpheniramine maleate was the bathing solution and was continuously bubbled with 95% O2 and 5% CO2. The organ bath was maintained at 36°-37° C. The longitudinal muscle strip was allowed to equilibrate with continuous stimulation for a minimun of 90 min. Cumulative concentration-response curves were determined after drugs were added to the bath in 10- to 50-uL amounts and washed out with two 10 ml portions of buffer after noting their maximum effects.

Experiment [2] deals with mouse vas deferens (MVD). In words: Agonism on the mouse vas deferens preparation (MVD). The format is cell-based. As to conditions: for Emax at 1 µM: Mus musculus, read-out: MVD Agonism (maximal response at highest concentration). How it is done: (§2) This assay was performed according to the description by Henderson et al., Brit. J. Pharmacol., 46, 764 (1972), the disclosure of which is incorporated by reference herein. Both vasa deferentia were dissected out of mice and mounted singly through two platinum ring electrodes in a 10 ml organ bath. The bath contained Krebs bicarbonate solution that was continuously bubbled with 95% O2 and 5% CO2. The organ bath was maintained at 37° C. The tissue was attached to an isometric transducer and stimulated transmurally with rectangular pulses ([…], 1 ms duration, supramaximal voltage). Drugs were added cumulatively to the bath in 10 to 50 ul amounts and washed out after noting their maximum effect.
(§3) Compounds IIIa-IIIh and TENA were tested on the electrically-stimulated guniea pig ileal longitudinal muscle (GPI) and, where appropriate, the mouse vas deferens preparation (MVD).
(§4) ^a For ligands that are partial or pure antagonists, the highest
(§5) concentration and maximal response is given. Potencies of pure agonists

Experiment [3] has as its system guinea pig ileal longitudinal muscle (GPI). In words: Agonism on electrically stimulated guinea pig ileal longitudinal muscle (GPI). The format is cell-based. On the procedure: as §1, §3, §4, §5
(IIIeh) are relative to morphine = 1.

Experiment [4] addresses T2, kappa opioid receptor (Cavia porcellus, UniProt P41144).
T2 construct: a strip of longitudinal muscle with the myenteric plexus attached was prepared; from tissue; host or cells: guinea pig ileal longitudinal muscle strip with myenteric plexus
As to the kind of experiment: Antagonism of ethylketazocine (EK, kappa agonist) on the GPI, IC50 ratio. The format is cell-based, guinea pig. On the procedure: as §1

For experiment [5], the target named is T3, delta opioid receptor (Mus musculus, UniProt P32300).
T3 construct: Both vasa deferentia were dissected out of mice; from tissue; host or cells: mouse vas deferens
T3 sequence (P32300 whole entry): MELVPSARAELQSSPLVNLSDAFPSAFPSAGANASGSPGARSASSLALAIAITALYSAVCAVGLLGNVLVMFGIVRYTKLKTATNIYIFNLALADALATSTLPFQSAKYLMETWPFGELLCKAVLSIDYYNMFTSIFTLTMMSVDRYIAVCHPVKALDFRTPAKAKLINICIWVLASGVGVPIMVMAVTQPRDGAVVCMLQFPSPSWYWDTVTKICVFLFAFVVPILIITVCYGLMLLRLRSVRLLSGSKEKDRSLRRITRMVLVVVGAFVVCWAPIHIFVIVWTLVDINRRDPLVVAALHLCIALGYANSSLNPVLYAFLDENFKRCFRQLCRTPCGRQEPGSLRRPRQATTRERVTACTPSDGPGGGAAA
In words: Antagonism of DADLE (selective delta agonist) on the MVD, IC50 ratio. The format is cell-based. As to conditions: IC50 of agonist in presence of antagonist / control IC50. On the procedure:
as §2

The subject of experiment [6] is kappa receptor. As to conditions: cited from earlier work.
The subject of experiment [7] is kappa-opioid receptors. As to the kind of experiment: Kappa-opioid antagonist selectivity (comparison of IC50 ratios, GPI and MVD). The format is cell-based, guinea pig. How it is done:
as §1
This assay was performed according to the description by Henderson et al., Brit. J. Pharmacol., 46, 764 (1972), the disclosure of which is incorporated by reference herein. […]

The nature of experiment [8]: Mouse writhing procedure, antagonism of agonist. The format is in vivo. Conditions: morphine 50 nmol s.c.; antagonist ICV. On the procedure:
(§6) Mice were treated with 50 nmol of the agonist (morphine, EK, or U50488H) subcutaneously and the antagonist was administered intracerebroventricularly (ICV).

Experiment [9] concerns the target T4, kappa receptors (Mus musculus, UniProt P33534).
T4 construct: tested in vivo using the mouse writhing procedure; from tissue
In words: Mouse writhing procedure, antagonism of agonist. The format is in vivo. As to conditions: antagonist ICV. How it is done:
as §6
In general terms: An intraperitoneal irritant provokes the stretching counted in writhing tests.

Experiment [10] has as its target T2, kappa opioid receptor. In words: Antagonism of U50488H (selective kappa agonist) on the GPI, IC50 ratio. The format is cell-based, guinea pig. Conditions: for GPI IC50 Ratio, U50488H: IC50 of agonist in presence of antagonist / control IC50. How it is done: as §1
Experiment [11] relates to mu receptors. Conditions: cited from earlier work.
Setting [12] is: antagonist 20 nM, IC50 of agonist in presence of antagonist / control IC50.
[13] abbreviates: Cavia porcellus, read-out: GPI Agonism (maximal response at highest concentration).
Where [14] appears, read: antagonist 2 nM, IC50 of agonist in presence of antagonist / control IC50.

T1 sequence (A0ACM8Q262 1-400): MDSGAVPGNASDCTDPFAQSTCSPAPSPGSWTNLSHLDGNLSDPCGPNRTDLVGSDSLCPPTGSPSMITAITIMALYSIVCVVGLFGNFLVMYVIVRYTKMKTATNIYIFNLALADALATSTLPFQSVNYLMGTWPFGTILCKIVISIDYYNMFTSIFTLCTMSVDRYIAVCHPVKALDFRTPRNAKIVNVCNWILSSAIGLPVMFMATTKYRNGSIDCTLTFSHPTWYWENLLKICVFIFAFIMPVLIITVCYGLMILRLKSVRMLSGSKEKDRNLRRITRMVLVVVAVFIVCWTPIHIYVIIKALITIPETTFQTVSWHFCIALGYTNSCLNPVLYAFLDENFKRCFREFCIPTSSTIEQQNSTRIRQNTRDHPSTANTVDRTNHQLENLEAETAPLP
T2 sequence (P41144 whole entry): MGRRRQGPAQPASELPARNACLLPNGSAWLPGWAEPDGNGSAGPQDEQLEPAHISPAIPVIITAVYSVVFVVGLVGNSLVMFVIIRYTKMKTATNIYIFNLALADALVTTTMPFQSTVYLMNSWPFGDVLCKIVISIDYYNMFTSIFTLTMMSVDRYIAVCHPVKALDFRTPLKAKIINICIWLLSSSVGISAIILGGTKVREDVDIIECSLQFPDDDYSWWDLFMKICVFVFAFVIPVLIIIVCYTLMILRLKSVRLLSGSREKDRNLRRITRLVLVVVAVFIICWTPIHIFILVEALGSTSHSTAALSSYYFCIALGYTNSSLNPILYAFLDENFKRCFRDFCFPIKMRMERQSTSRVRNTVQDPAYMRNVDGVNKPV
T4 sequence (P33534 whole entry): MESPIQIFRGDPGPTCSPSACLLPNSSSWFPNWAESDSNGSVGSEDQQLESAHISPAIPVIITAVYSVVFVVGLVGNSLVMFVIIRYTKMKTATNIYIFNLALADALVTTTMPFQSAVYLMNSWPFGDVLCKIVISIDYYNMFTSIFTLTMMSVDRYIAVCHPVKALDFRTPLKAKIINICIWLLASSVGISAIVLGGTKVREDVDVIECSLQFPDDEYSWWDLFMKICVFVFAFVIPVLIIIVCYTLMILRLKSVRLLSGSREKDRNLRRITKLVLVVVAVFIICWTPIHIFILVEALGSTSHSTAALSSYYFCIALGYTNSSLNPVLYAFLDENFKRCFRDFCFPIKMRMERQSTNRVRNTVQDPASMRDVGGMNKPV

As for `CC(=O)Oc1ccc2c3c1O[C@H]1c4[nH]c5c(c4C[C@@]4(O)[C@@H](C2)N(CC2CC2)CC[C@]314)C[C@@]1(O)[C@H]2Cc3ccc(OC(C)=O)c4c3[C@@]1(CCN2CC1CC1)[C@H]5O4` [IIId], the “GPI IC50 Ratio, Morphine Sulfate” value in [1] (setting [12]) was 8.0 (2). The Emax at 1 µM in experiment [2] and in [3] (setting [13]) was 32% in each case. Also, in experiment [4] (setting [12]), the “GPI IC50 Ratio, Ethylketazocine” value was 697 (2). Moreover, in [5] (antagonist 20 nM), the “MVD IC50 Ratio, DADLE” value is 3.5 ± 1.3.
As to `COc1ccc2c3c1O[C@H]1c4[nH]c5c(c4C[C@@]4(O)[C@@H](C2)N(CC2CC2)CC[C@]314)C[C@@]1(O)[C@H]2Cc3ccc(OC)c4c3[C@@]1(CCN2CC1CC1)[C@H]5O4` [IIIe], the “GPI IC50 Ratio, Morphine Sulfate” value in experiment [1] (setting [12]) is on record as 0.8 (2). The Emax at 1 µM in experiment [2] came out at 39%; in experiment [3] (setting [13]), 0%. For the same compound, the “GPI IC50 Ratio, Ethylketazocine” value in [4] (setting [12]) is listed as 4 (2). Besides, the “MVD IC50 Ratio, DADLE” value in experiment [5] (antagonist 20 nM) is reported as 0.6 ± 0.1.
In the case of `CCn1c2c(c3c1[C@@H]1Oc4c(O)ccc5c4[C@@]14CCN(CC1CC1)[C@H](C5)[C@]4(O)C3)C[C@@]1(O)[C@H]3Cc4ccc(O)c5c4[C@@]1(CCN3CC1CC1)[C@H]2O5` [IIIc], the “GPI IC50 Ratio, Morphine Sulfate” value in [1] (setting [12]) amounted to 2.2 ± 0.7. Moreover, the Emax at 1 µM was found to be 41% in [2] and 0% in experiment [3] (setting [13]). In addition, the “GPI IC50 Ratio, Ethylketazocine” value in [4] (setting [12]) stood at 147 ± 20. In addition, the “MVD IC50 Ratio, DADLE” value was 1.8 ± 0.3 in [5] (antagonist 2 nM) and 4.2 ± 1.1 in experiment [5] (antagonist 20 nM).
On to `Oc1ccc2c3c1O[C@H]1[C@H](NCCOCCOCCN[C@@H]4CC[C@@]5(O)[C@H]6Cc7ccc(O)c8c7[C@@]5(CCN6CC5CC5)[C@H]4O8)CC[C@@]4(O)[C@@H](C2)N(CC2CC2)CC[C@]314` [TENA, reference compound], for which the “GPI IC50 Ratio, Morphine Sulfate” value in [1] (setting [12]) was 4.20 ± 1.20. Further, the “times more effective in antagonizing U50488H relative to morphine” value in [6] (U50488H vs morphine) is on record as “about 27 times”. Besides, the “times more effective against ethylketazocine relative to morphine” value in experiment [6] (ethylketazocine vs morphine) is reported as “about five”. Further, in experiment [3] (Cavia porcellus, @ 10 nM, read-out: GPI Agonism (maximal response at highest concentration)), the Emax at 0.01 µM was 10%. Besides, the “GPI IC50 Ratio, Ethylketazocine” value in experiment [4] (setting [12]) was found to be 19.6 ± 2.40. For the same compound, in [5] (antagonist 20 nM), the “MVD IC50 Ratio, DADLE” value was found to be 1.2.
As to `Cn1c2c(c3c1[C@@H]1Oc4c(O)ccc5c4[C@@]14CCN(CC1CC1)[C@H](C5)[C@]4(O)C3)C[C@@]1(O)[C@H]3Cc4ccc(O)c5c4[C@@]1(CCN3CC1CC1)[C@H]2O5` [IIIb], the “antagonism of morphine in GPI” value in experiment [1] (20 nM) is “no significant antagonism of morphine was observed at 20 nM”. Further, in experiment [1] (setting [12]), the “GPI IC50 Ratio, Morphine Sulfate” value is 1.2 ± 0.3. Further, in experiment [2], the “agonist activity in MVD” value was “no agonist effect” and the Emax at 1 µM is 42%. Besides, the “kappa-opioid antagonist selectivity” value in experiment [7] is “possesses the greatest kappa selectivity; also recorded: "pure" kappa-opioid receptor antagonist”. In addition, in experiment [8], the “ED50 ratio [(agonist+IIIb)/agonist control], morphine” value was determined as 0.85. Also, in experiment [9] (EK 50 nmol s.c.), the “ED50 ratio [(agonist+IIIb)/agonist control], EK” value was determined as 3.85. In addition, the “ED50 ratio [(agonist+IIIb)/agonist control], U50488H” value in experiment [9] (U50488H 50 nmol s.c.) amounted to 15.71. Also, in [3], the “agonist activity in GPI” value is “no agonist effect”. Further, the Emax at 1 µM in [3] (setting [13]) worked out at 0%. In experiment [4] (setting [12]), the “GPI IC50 Ratio, Ethylketazocine” value stood at 165 ± 30. Besides, the “MVD IC50 Ratio, DADLE” value in experiment [5] (antagonist 20 nM) is given as 4.5 ± 0.7.
On to `Oc1ccc2c3c1O[C@H]1c4[nH]c5c(c4C[C@@]4(O)[C@@H](C2)N(CC2CC2)CC[C@]314)C[C@@]1(O)[C@H]2Cc3ccc(O)c4c3[C@@]1(CCN2CC1CC1)[C@H]5O4` [IIIa], for which the “GPI IC50 Ratio, Morphine Sulfate” value in experiment [1] (setting [14]) worked out at 0.92 ± 0.16; in experiment [1] (setting [12]) it was 4.7 ± 0.8. In addition, the Emax at 1 µM in experiment [2] was determined as 16%. The Emax at 0.2 µM in experiment [3] (Cavia porcellus, @ 200 nM, read-out: GPI Agonism (maximal response at highest concentration)) amounted to 14%. Further, the “GPI IC50 Ratio, Ethylketazocine” value was determined as 8.8 ± 0.13 in experiment [4] (setting [14]) and 49.7 ± 15.6 in experiment [4] (setting [12]). Besides, in experiment [10], the “antagonism of U50488H in GPI, IC50 ratio values compared with EK” value is reported as “higher IC50 ratio values were observed”. Also, the “GPI IC50 Ratio, U50488H” value in experiment [10] (antagonist 2 nM) stood at 11.0 ± 1.1; in experiment [10] (antagonist 20 nM), 178 ± 18. The “MVD IC50 Ratio, DADLE” value in experiment [5] (antagonist 20 nM) is recorded as 2.0 ± 0.1.
With `CN1CC[C@]23c4c5ccc(O)c4O[C@H]2c2[nH]c4c(c2C[C@H]3[C@H]1C5)C[C@H]1[C@H]2Cc3ccc(O)c5c3[C@@]1(CCN2C)[C@H]4O5` [IIIf], in [1] (compound 10 nM), the “GPI IC50 Ratio, Morphine Sulfate” value is 0.3 ± 0.1. Further, the “GPI Agonism, potency of pure agonists relative to morphine = 1” value in experiment [3] was 3.1 ± 0.4. Further, the “GPI IC50 Ratio, Ethylketazocine” value in experiment [4] (compound 10 nM) was determined as 0.5 ± 0.04.
For `CN1CC[C@]23c4c5ccc(O)c4O[C@H]2c2[nH]c4c(c2C[C@@]3(O)[C@H]1C5)C[C@@]1(O)[C@H]2Cc3ccc(O)c5c3[C@@]1(CCN2C)[C@H]4O5` [IIIh], the “GPI IC50 Ratio, Morphine Sulfate” value in experiment [1] (compound 50 nM) worked out at 0.9 ± 0.2. The “GPI Agonism, potency of pure agonists relative to morphine = 1” value in experiment [3] is 0.23 ± 0.05. In [4] (compound 50 nM), the “GPI IC50 Ratio, Ethylketazocine” value was 0.4 ± 0.05.
Consider `COc1ccc2c3c1O[C@H]1c4[nH]c5c(c4C[C@H]4[C@@H](C2)N(C)CC[C@]314)C[C@H]1[C@H]2Cc3ccc(OC)c4c3[C@@]1(CCN2C)[C@H]5O4` [IIIg], for which the “GPI IC50 Ratio, Morphine Sulfate” value in experiment [1] (compound 100 nM) is 0.5 ± 0.07. Moreover, the “GPI Agonism, potency of pure agonists relative to morphine = 1” value in experiment [3] amounted to 0.2 ± 0.04. Besides, the “GPI IC50 Ratio, Ethylketazocine” value in experiment [4] (compound 100 nM) was 0.4 ± 0.07.
`O=C1CC[C@@]2(O)[C@H]3Cc4ccc(O)c5c4[C@@]2(CCN3CC2CC2)[C@H]1O5` [naltrexone]: the “potency at mu receptors compared with kappa” value in experiment [11] is given as “much greater potency at mu receptors”.

Source of the values: patent US4649200A, “Substituted pyrroles with opioid receptor activity” (Regents of the University of Minnesota, priority 1986, dated 1987).
